In patent publication US10183059B2, “Method for treating microbial infection” (GENERAL BIOLOGICALS CORPORATION, priority 2015, dated 2019):
No end group written: not given here.

How the values were obtained:
[1] = Circular dichroism secondary structure in 85% TFE, BeStSel analysis; assay type: physicochemical; settings: CD analyzed by BeStSel
Method: The present invention utilized a Circular Dichroism Spectrometer (AVIV Company) to observe the secondary structure of the antimicrobial peptides. Circular dichoism spectra of P-113 and its derivatives were recorded over the wavelength range of 195-260 nm with readings every 1 nm by using a quartz cuvette having 1 mm optical path length. Ellipticities were represented as mean residue molar ellipticity (MRE). P-113, P-113Du and P-113Tri were dissolved in 85% trifluoroethanol (TFE) solution.

[2] = system: C. dubliniensis; assay type: cell-based
Method: (§1) The antimicrobial activities against clinical isolates and drug-resistant strains of P-113 and its derived peptides were examined. The present invention evaluated the effect of P-113 on 15 clinical isolates of fungi belonging to the genus Candida (see Table 1). Clinical isolates were cultivated overnight at 30° C. under shaking in a YPD cultural broth (1% yeast extract, 2% peptone and 2% glucose), cells were centrifuged and washed with YPD, then cultivated again in a YPD culture broth allowing to grow for 5 hours (initial optical density at 600 nm [OD600]˜0.5). Cells were washed with PBS and then collected by centrifugation, redissolved in a culture broth (modified RPMI 1640 medium, LYM), the cell concentration was adjusted to ˜0.1 [OD600]/ml and then treated with P-113. After the mixed solution was cultivated under shaking at 37° C. and 5% CO2 for 24 hours, absorbance measurement (OD value) was performed to determine the minimum inhibitory concentration (MIC).

[3] = system: C. parapsilosis; assay type: cell-based
Method: as §1

[4] = system: Candida albicans strain SC5314; assay: Fungal suppression at various concentrations and reaction times, colony count; assay type: cell-based; settings: 37° C., 12.5 mM NaOAc
Method: To examine the activity of P-113 for killing fungus, fungal suppression assays were carried out at various concentrations or reaction times. Candida albicans strain SC5314 (wild type, WT) was cultivated in the Yeast extract Peptone Dextrose medium (YPD medium) at 30° C. overnight, transferred to 5 ml of fresh YPD culture broth, and then cultivated again for another 5 hours. After fungi were collected by centrifugation, the fungi were washed with 12.5 mM sodium acetate (NaOAc) twice, redissolved in each well of a 96-well plate with 12.5 mM NaOAc (1.5×10^6 cells in 0.1 ml of 12.5 mM NaOAc). Then, the fungi were treated with different concentrations of P-113 for different reaction times at 37° C. Around […] of Phosphate-buffered saline (PBS) was added into each well, took 25 μl of liquid fungi suspension out and inoculated on a solid YPD medium, after being cultivated at 30° C. for 24 hours, the number of colonies were counted.

[5] = system: Wild type (WT) Candida albicans; assay: Salt and pH tolerance of candidacidal activity; assay type: cell-based
Method: Wild type (WT) Candida albicans was cultivated in a YPD medium at 30° C. overnight and then transferred to 5 ml of fresh YPD culture broth, cultivated subsequently for another 5 hours. After the fungi were collected by centrifugation, washed with 12.5 mM sodium acetate twice, redissolved with 12.5 mM NaOAc to yield a fungal concentration of 1.5×10^6 cells/ml. Fifty microliters of liquid fungal suspension was taken out to mix with 50 μl of sequentially diluted antimicrobial peptides and placed in different wells of a 96-well plate allowing to react for 1 hour at 37° C. (as shown in FIG. 4(A). Then, 50 μl of liquid fungal mixture was taken out and 450 μl PBS was added to terminate the reaction. Finally, 25 μl was taken out and inoculated on a solid YPD medium.

[6] = system: SC5314 strain of Candida albicans; assay: Intracellular ROS assay (DHE, MitoSOX Red, flow cytometry); assay type: cell-based; settings: 0.25 μM, 1 h, 37° C.
Method: The SC5314 strain of Candida albicans (wild type or WT) were grown overnight in YPD broth at 30° C. The overnight culture was then subcultured into fresh YPD medium and grown for 5 h. Cells were harvested by centrifugation, washed twice with 12.5 mM sodium acetate (NaOAc) and resuspended in 12.5 mM NaOAc to a concentration of 1*10^7 cells/ml. The cells were treated with various AMPs (0.25 μM) for 1 h at 37° C. After treatment, cells were washed twice with 12.5 mM NaOAc. Dihydroethidium (DHE) is a superoxide indicator, and MitoSOX Red (MitoSOX) was introduced for selective detection of superoxide in the mitochondria of live cells. The intracellular ROS was measured using DHE (20 μM) staining for 30 min and MitoSOX Red (5 μM) for 60 min in PBS. Fluorescent detection was performed by flow cytometry.

[7] = system: och1Δ mutant strain; assay: Susceptibility of och1Δ mutant, CFU; assay type: cell-based, Candida albicans; settings: och1Δ versus SN250, 1 h
Method: The SN250 and och1Δ mutant strains were grown overnight in YPD broth at 30° C. The overnight culture was then subcultured into fresh YPD medium and grown for 5 h. Cells were treated with different concentration of peptides for 1 h. After treatment, samples were serially diluted in PBS and 15 μl of each diluent was spotted onto YPD agar plates. Colony-forming units were counted after 24 h incubation at 30° C. The data were represented as the mean values±SD of three independent experiments.

[8] = system: SC5314 strain of Candida albicans; assay: Effect of cell wall disrupting agents on peptide activity, CFU; assay type: cell-based; settings: Proteinase K 1 mg/ml, 30 min
Method: The SC5314 strain of Candida albicans (wild type or WT) were grown overnight in YPD broth at 30° C. The overnight culture was then subcultured into fresh YPD medium and grown for 5 h. Cells were treated with Proteinase K (1 mg/ml) for 30 min or Zymolyase (5 mg/ml) for 1 h at 30° C., followed by reacting with different concentrations of the peptides for 1 h, respectively. After that, samples were serially diluted in phosphate-buffered saline (PBS) and 15 μl of each diluent was spotted onto YPD agar plates. Colony-forming units were counted after incubation at 30° C. for 24 h. The data were represented as the mean values±SD of three independent experiments.

[9] = system: Candida albicans strain SC5314 biofilms; assay: Biofilm cell viability, XTT reduction assay; assay type: cell-based; settings: biofilm cells, 37° C., 1 hr
Method: Candida albicans strain SC5314 was cultivated in a YPD medium overnight and then transferred to a fresh YPD culture broth, diluted until the concentration was 3×10^5 cells/ml. 100 μl of liquid fungal suspension was placed in a 96-well plate for cultivation at 37° C. for 24 hours, formed biofilms were washed with sodium acetate (12.5 mM). Then, sequence-diluted antimicrobial peptides P-113, P-113Du and P-113Tri (0-200 μM) were added, reacted at 37° C. for 1 hour, washed with PBS twice. The cellular activity of the biofilms was determined by using XTT (2,3-bis(2-methoxy-4-nitro-5-sulfophenyl)-2H-tetrazolium-5-carboxanilide) reduction assays to analyze the cell survival rate. To perform this reaction, XTT (0.5 mg/ml) and Menadione (0.5 μM) were dissolved in PBS and then added into a 96-well plate formed by biofilms, reacted at 30° C. for 30 minutes, the optical density was measured at wavelength 490 nm (OD490). The cellular activity of the biofilms was represented as a percentage.

AKRHHGYKRKFH-NH2 [P-113, AKRHHGYKRKFH-NH2]
content of the α-helical secondary structure [1]: 2.9% | Minimum Inhibitory Concentration [2]: 6.25 µg/mL | Minimum Inhibitory Concentration [3]: 0.78 µg/mL | anti-Candida activity, dependence on concentration and time [4]: time-dependent and dose-dependent | candidacidal activity ([5]; 12.5 mM sodium acetate, 37° C., 1 hour): exhibited candidacidal activity | candidacidal activity ([5]; 62.25 and 93.75 mM salt): reduced activity | candidacidal activity ([5]; pH 4.5): activity was lost | candidacidal activity ([5]; pH 6 and 8): exhibited candidacidal activity | intracellular ROS formation [6]: induced intracellular ROS formation | susceptibility of och1Δ mutant to peptide [7]: resistant | candidacidal activity after proteinase K treatment of cells [8]: failed to kill C. albicans | concentration causing 50% reduction in the metabolic activity (50% RMA) [9]: > 300 µg/mL
